Laboratory results published in ChEMBL document CHEMBL1144145, “Sesquiterpene polyol esters from the leaves of maytenus macrocarpa” (J Nat Prod, 1999).

Experiments:
Assay type in all cases: functional, cell-based
HT-29 = experiment: Cytotoxicity against human HT-29 cells by […]
A549 = experiment: Cytotoxicity against human A549 cells by […]
P388 = experiment: Cytotoxicity against mouse P388 cells by […]
[1] = Cytotoxicity against human MEL28 cells by […]; conditions: SK-MEL-28

Measured: IC50

CC(=O)OC[C@@]12[C@@H](OC(=O)c3ccccc3)CC[C@](C)(O)[C@]13OC(C)(C)[C@H]([C@H](OC(C)=O)[C@H]2OC(=O)c1ccccc1)[C@H]3OC(C)=O
> 25 µg/mL: HT-29 | A549 | P388 | [1]
